In US9962350B2, “Agent for improving normal development rate of fertilized eggs” (SBI Pharmaceuticals Co., Ltd., priority 2014, dated 2018):

Tested on: C57BL/6J in vitro fertilized eggs
Experiment: Low-temperature in vitro culture of in vitro fertilization-derived fertilized eggs in KSOM or mWM with ALA; embryo development
Format: cell-based, mouse
Method: 5 U (units) of equine chorionic gonadotropin (serum gonadotropin) (ASKA Pharmaceutical Co., Ltd.) were intraperitoneally administered to each female mouse of the C57BL/6J lineage (3.9 weeks old to 4.0 weeks old). […], 5 U (units) of gonadotropin (human chorionic gonadotropin) (ASKA Pharmaceutical Co., Ltd.) were intraperitoneally administered thereto for controlled ovarian hyperstimulation. 15 hours after the administration of gonadotropin, the oviducts were recovered by opening the abdomens. In mineral oil, the ampullae of the oviducts were incised with a dissecting needle, and the ova were recovered into a drop of mHTF medium (ARK Resource Co., Ltd.). Sperms were recovered from the cauda epididymides of C57BL/6J male mice and cultured in mHTF medium at 37° C. for 40 minutes to 1 hour under 5% CO2 conditions for capacitation. 2 μl to 4 μl of the mHTF medium containing the sperms was added to the medium drop containing the recovered ova for insemination, and cultured at 37° C. under 5% CO2 conditions. 4 hours to 6 hours after the insemination, the fertilized eggs were washed with KSOM (ARK Resource Co., Ltd.) or mWM (ARK Resource Co., Ltd.) to remove cumulus cells and sperms. The fertilized eggs were temporarily cultured in KSOM or mWM in an incubator of 37° C. and 5% CO2 until all of the fertilized eggs were recovered.
25 of the fertilized eggs per drop were transferred to a drop (covered with mineral oil (Sigma-Aldrich Corp.)) consisting of 100 μl of ALA-unsupplemented or ALA-supplemented (1 μM or 3 μM) medium (KSOM or mWM). Subsequently, the fertilized eggs were cultured under three conditions: a condition of 37° C. and 5% CO2, a condition of 35° C. and 5% CO2, and a condition of 35.5° C. and 5% CO2. The number of 2-cell eggs was counted 24 hours after the ovum recovery, and the number of blastocysts was counted 96 hours thereafter. Since the development of fertilized eggs obtained by in vitro fertilization is slightly slow, the number of blastocysts was also counted 120 hours after the ovum recovery. The development rate of embryos at each culture time was calculated on the basis of the number of 2-cell embryos 24 hours postfertilization defined as 100%. The results about KSOM are shown in Tables 14 and 15 and FIGS. 9 and 11. The results about mWM are shown in Tables 16 and 17 and FIGS. 10, 12, and 13.

NCC(=O)CCC(=O)O [ALA, 5-aminolevulinic acid]
The number of developed embryos in KSOM (35° C., 1 μM ALA, 24 hr): 61
The number of developed embryos in KSOM (35° C., 1 μM ALA, 48 hr): 27
development rate with the number of 2-cell embryos 24 hours postfertilization in KSOM defined as 100% (35° C., 1 μM ALA, 48 hr): 44%
The number of developed embryos in KSOM (35° C., 1 μM ALA, 72 hr): 26
development rate with the number of 2-cell embryos 24 hours postfertilization in KSOM defined as 100% (35° C., 1 μM ALA, 72 hr): 43%
The number of developed embryos in KSOM (35° C., 1 μM ALA, 120 hr): 22
development rate with the number of 2-cell embryos 24 hours postfertilization in KSOM defined as 100% (35° C., 1 μM ALA, 120 hr (blastocysts)): 36%
The number of developed embryos in mWM (35° C., 1 μM ALA, 24 hr): 51
The number of developed embryos in mWM (35° C., 1 μM ALA, 48 hr): 55
development rate with the number of 2-cell embryos 24 hours postfertilization in mWM defined as 100% (35° C., 1 μM ALA, 48 hr): 108%
The number of developed embryos in mWM (35° C., 1 μM ALA, 72 hr): 46
development rate with the number of 2-cell embryos 24 hours postfertilization in mWM defined as 100% (35° C., 1 μM ALA, 72 hr): 90%
The number of developed embryos in mWM (35° C., 1 μM ALA, 96 hr): 29
development rate with the number of 2-cell embryos 24 hours postfertilization in mWM defined as 100% (35° C., 1 μM ALA, 96 hr (blastocysts)): 53%
The number of developed embryos in KSOM (35° C., 3 μM ALA, 24 hr): 60
The number of developed embryos in KSOM (35° C., 3 μM ALA, 48 hr): 29
development rate with the number of 2-cell embryos 24 hours postfertilization in KSOM defined as 100% (35° C., 3 μM ALA, 48 hr): 48%
The number of developed embryos in KSOM (35° C., 3 μM ALA, 72 hr): 27
development rate with the number of 2-cell embryos 24 hours postfertilization in KSOM defined as 100% (35° C., 3 μM ALA, 72 hr): 45%
The number of developed embryos in KSOM (35° C., 3 μM ALA, 120 hr): 16
development rate with the number of 2-cell embryos 24 hours postfertilization in KSOM defined as 100% (35° C., 3 μM ALA, 120 hr (blastocysts)): 27%
The number of developed embryos in mWM (35° C., 3 μM ALA, 24 hr): 52
The number of developed embryos in mWM (35° C., 3 μM ALA, 48 hr): 44
development rate with the number of 2-cell embryos 24 hours postfertilization in mWM defined as 100% (35° C., 3 μM ALA, 48 hr): 85%
The number of developed embryos in mWM (35° C., 3 μM ALA, 72 hr): 27
development rate with the number of 2-cell embryos 24 hours postfertilization in mWM defined as 100% (35° C., 3 μM ALA, 72 hr): 52%
The number of developed embryos in mWM (35° C., 3 μM ALA, 96 hr): 20
development rate with the number of 2-cell embryos 24 hours postfertilization in mWM defined as 100% (35° C., 3 μM ALA, 96 hr (blastocysts)): 38%
The number of developed embryos in mWM (35.5° C., 1 μM ALA, 24 hr): 60
The number of developed embryos in mWM (35.5° C., 1 μM ALA, 48 hr): 60
development rate with the number of 2-cell embryos 24 hours postfertilization in mWM defined as 100% (35.5° C., 1 μM ALA, 48 hr): 100%
The number of developed embryos in mWM (35.5° C., 1 μM ALA, 72 hr): 49
development rate with the number of 2-cell embryos 24 hours postfertilization in mWM defined as 100% (35.5° C., 1 μM ALA, 72 hr): 82%
The number of developed embryos in mWM (35.5° C., 1 μM ALA, 96 hr): 42
development rate with the number of 2-cell embryos 24 hours postfertilization in mWM defined as 100% (35.5° C., 1 μM ALA, 96 hr (blastocysts)): 70%
The number of developed embryos in mWM (35.5° C., 3 μM ALA, 24 hr): 52
The number of developed embryos in mWM (35.5° C., 3 μM ALA, 48 hr): 52
development rate with the number of 2-cell embryos 24 hours postfertilization in mWM defined as 100% (35.5° C., 3 μM ALA, 48 hr): 100%
The number of developed embryos in mWM (35.5° C., 3 μM ALA, 72 hr): 46
development rate with the number of 2-cell embryos 24 hours postfertilization in mWM defined as 100% (35.5° C., 3 μM ALA, 72 hr): 88%
The number of developed embryos in mWM (35.5° C., 3 μM ALA, 96 hr): 39
development rate with the number of 2-cell embryos 24 hours postfertilization in mWM defined as 100% (35.5° C., 3 μM ALA, 96 hr (blastocysts)): 75%
